Laboratory results reported in US20230172204A1 (BASF SE, priority 2020, published 2023).

What was measured:
[1] = test system: Phakopsora pachyrhizi (F129L); assay: Protective control of soybean rust on soybeans (PHAKPA P6); format: in vivo; conditions: for % PHAKPA (F129L) Disease level P6 at 4 ppm: protective P6, 4 ppm; for % PHAKPA (F129L) Disease level P6 at 4 ppm / % PHAKPA (F129L) Disease level P6 at 16 ppm: soybean rust F129L; for % PHAKPA (F129L) Disease level P6 at 16 ppm: protective P6, 16 ppm
[2] = test system: Colletotrichum orbiculare; assay: Micro titer plate test against Colletotrichum orbiculare causing anthracnose (COLLLA); format: cell-based; conditions: Colletotrichum orbiculare, 168 h, read-out: Fungal growth (%) COLLLA
[3] = test system: Pyrenophora teres (wt); assay: Micro titer plate test against Pyrenophora teres causing net blotch on barley (PYRNTE wt); format: cell-based; conditions: 168 h, 0.25 ppm, read-out: Fungal growth (%) PYRNTE wt
[4] = test system: Cercospora sojina; assay: microbe, parasite or virus in culture; format: cell-based; conditions: Cercospora sojina, 168 h; 4 ppm; read-out: Fungal growth (%) CERCSO
[5] = test system: Alternaria solani (wt); assay: microbe, parasite or virus in culture; format: cell-based; conditions: Alternaria solani, 168 h, read-out: Fungal growth (%) ALTESO wt
[6] = test system: Microdochium nivale; assay: Micro titer plate test against Microdochium nivale causing snow mould (MONGNI); format: cell-based; conditions: Microdochium nivale, 168 h; 0.016 ppm; read-out: Fungal growth (%) MONGNI
[7] = test system: Septoria tritici; assay: microbe, parasite or virus in culture; format: cell-based; conditions: Zymoseptoria tritici, 168 h, read-out: Fungal growth (%) SEPTTR
[8] = test system: Alternaria solani (F129L); assay: Micro titer plate test against Alternaria solani causing early blight (ALTESO F129L); format: cell-based; conditions: Alternaria solani, 168 h; 0.016 ppm; read-out: Fungal growth (%) ALTESO F129L
[9] = test system: Phakopsora pachyrhizi (F129L); assay: Protective control of soybean rust on soybeans (PHAKPA P2); format: in vivo; conditions: for % PHAKPA (F129L) Disease level P2 at 4 ppm: protective P2, 4 ppm; for % PHAKPA (F129L) Disease level P2 at 4 ppm / % PHAKPA (F129L) Disease level P2 at 16 ppm: soybean rust F129L; for % PHAKPA (F129L) Disease level P2 at 16 ppm: protective P2, 16 ppm
[10] = test system: Pyrenophora teres (F129L); assay: Micro titer plate test against Pyrenophora teres causing net blotch on barley (PYRNTE F129L); format: cell-based; conditions: 0.25 ppm
[11] = test system: Pyricularia oryzae; assay: microbe, parasite or virus in culture; format: cell-based; conditions: Pyricularia oryzae, 168 h, read-out: Fungal growth (%) PYRIOR
[12] = test system: Leptosphaeria nodorum; assay: Micro titer plate test against Leptosphaeria nodorum causing wheat leaf spots (LEPTNO); format: cell-based; conditions: Parastagonospora nodorum, 168 h; 0.063 ppm; read-out: Fungal growth (%) LEPTNO

CNC(=O)/C(=N/OC)c1cccc(C)c1CO/N=C(\C)c1cccc(Cl)c1 [Ex. 157]
PHAKPA (F129L) Disease level (%) P6 at 4 ppm ([1]; P6 protective, 4 ppm, % diseased leaf area): 2%
PHAKPA (F129L) Disease level (%) P6 at 16 ppm ([1]; P6 protective, 16 ppm, % diseased leaf area): 1%
% PHAKPA (F129L) Disease level P6 at 4 ppm [1]: 1%
% PHAKPA (F129L) Disease level P6 at 16 ppm [1]: 0%
activity at 0.063 ppm [2]: 63%
activity at 0.25 ppm [3]: 54%
activity at 4 ppm [4]: 36%
activity at 0.25 ppm ([5]; 0.25 ppm): 27%
activity at 0.016 ppm [6]: 56%
activity at 0.25 ppm [7]: 20%
activity at 0.016 ppm [8]: 57%
% PHAKPA (F129L) Disease level P2 at 4 ppm [9]: 1%
% PHAKPA (F129L) Disease level P2 at 16 ppm [9]: 0%
Fungal growth (%) PYRNTE F129L [10]: 58%
activity at 0.016 ppm [11]: 15%

CO/N=C(/C(=O)OC)c1cccc(C)c1CO/N=C(\C)c1cccc(C)c1 [Ex. 76]
activity at 0.063 ppm [12]: 39%
% PHAKPA (F129L) Disease level P6 at 4 ppm [1]: 9%
% PHAKPA (F129L) Disease level P6 at 16 ppm [1]: 0%
activity at 0.063 ppm [2]: 39%
activity at 0.25 ppm [3]: 39%
activity at 4 ppm [4]: 28%
activity at 0.016 ppm ([5]; 0.016 ppm): 55%
activity at 0.016 ppm [6]: 35%
activity at 0.25 ppm [7]: 0%
activity at 0.016 ppm [8]: 37%
PHAKPA (F129L) Disease level (%) P2 at 4 ppm ([9]; P2 protective, 4 ppm, % diseased leaf area): 35%
PHAKPA (F129L) Disease level (%) P2 at 16 ppm ([9]; P2 protective, 16 ppm, % diseased leaf area): 1%
% PHAKPA (F129L) Disease level P2 at 4 ppm [9]: 30%
% PHAKPA (F129L) Disease level P2 at 16 ppm [9]: 3%
Fungal growth (%) PYRNTE F129L [10]: 66%
activity at 0.016 ppm [11]: 43%
